Test results reported in patent US10435400B2, “2,4-disubstituted phenylene-1,5-diamine derivatives and applications thereof, and pharmaceutical compositions and pharmaceutically acceptable compositions prepared therefrom” (SHANGHAI HAIYAN PHARMACEUTICAL TECHNOLOGY CO., LTD., priority 2014, dated 2019).
Read-outs that look alike come from different tables or passages of the source.

What was measured:
[1] = tested on: H1975 cells; assay: Cytostatic activity by MTT method, H1975 cells; format: cell-based; settings: read-out: H1975 cells (IC50/nM)
Method: MTT assay used the method well known to those skilled in the art, and the reagents used in the method can be commercially obtained. […] After rinsed for one time, 1.5 ml trypsin/EDTA was added to digest the adherent cells until the cells detached, and then 3.5 ml of medium was added to terminate the trypsinization. The digested cell suspension was transferred to a 15 ml falcon tube, and spun at 1300 rpm for 3 min, the supernatant was discarded, and cells were suspended in fresh medium. […] The plates were spun at 2000 rpm for 5 min.

[2] = tested on: NIH3T3 cells; assay: Cytotoxicity by MTT method, NIH3T3 cells; format: cell-based; settings: read-out: NIH3T3 cells MTT assay (IC50/nM);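 also: cells grown in 96-well plates with compound for 72 h, then given MTT for a further 4 h at 37 °C under 5% CO2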
Method: After rinsed for one time, 1.5 ml trypsin/EDTA was added to digest the adherent cells until the cells detached, and then 3.5 ml of medium was added to terminate the trypsinization. The digested cell suspension was transferred to a 15 ml falcon tube, and spun at 1300 rpm for 3 min, the supernatant was discarded, and cells were suspended in fresh medium.
The cells were added into the incubator after addition of the test compound, and incubated for 72 h, 10 μl of 5 mg/ml MTT (Sigma, M5655) solution was added to each well of the plate, and incubated the 96-well plates at 37° C. 5% CO2 for 4 h in a incubator.
The plates were spun at 2000 rpm for 5 min.

[3] = molecular target: EGFR WT kinase (Homo sapiens (Human), UniProt P00533); assay: Wild type EGFR kinase inhibition test (z-lyte); format: biochemical; settings: 10 μM ATP
[4] = tested on: H1975 cells; assay: ELISA screening EGFR T790M inhibitor for cell activity, H1975 cells; format: cell-based; settings: ELISA; for IC50: compound 1 h, read-out: H1975 cells (IC50/nM); for Selective inhibitory activities of target on cellular level [IC50 (A431 cells)/IC50 (H1975 cells)]: ratio of IC50 values
Method: (§1) The reagents, preparation methods of the solution, as well as the procedures of cell treatments and preparation of lysate, and the test steps of ELISA in the following method were conducted according to the instructions of R&D DYC3570, R&D DYC1095E and R&D DYC1095BE.
(§2) Cell lysates: cell lysis buffer+10 μg/ml Aprotinin (Sigma), 10 μg/ml Leupeptin (Sigma). All reagents were prepared when using.
(2) The test compounds were diluted according to the method in MTT assay, and 10 μl of diluted compound or DMSO was added to the corresponding plate well, and incubated at 37° C. with 5% CO2 for 1 h. The final concentration of DMSO was 0.5%. Cell culture system merely treated with DMSO was used as cell control.
(3) 100 μl cell lysate was added after aspirating the medium, sealed and placed in a refrigerator at −80° C. overnight. Cell lysis buffer used as blank control.
The assay was operated according to the instructions of R&D DYC1095E or R&D DYC1095BE.
(§3) (5) 40 μl of cell lysis buffer and 60 μl of cell lysates were added, and incubated at 25° C. for 2 h under shaking;
(7) Detection antibody was diluted according to a predetermined ratio as stipulated in kit instructions by using IC diluent, and 100 μl of the diluted Detection Antibody was added to each well, and incubated at 25° C. for 1 h under shaking in darkness;
(9) reagent A and reagent B of TMB substrate (R & D DY999) were mixed with 1:1, and 100 μl of substrate was added to each well, and incubated at 25° C. for 20 minutes under shaking in darkness;
(11) The OD450 values and OD570 values of the cell control, blank control and compound treatment were measured respectively by using microplate reader (Thermo Multiskan K3), and the corresponding OD570 values were subtracted from OD450 values of the same wells to get the ODcell, ODblank and ODcompound treatment respectively.
2.3 Data Analysis Inhibition ratio (%)=100%×(ODcell−ODcompound treatment)(ODcell−ODblank)

[5] = tested on: A431 cells; assay: ELISA cell activity, EGF-stimulated A431 cells; format: cell-based; settings: ELISA, compound 1 h then EGF 45 minutes, read-out: A431 cells (IC50/nM);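 also: Serum-starved A431 cells pretreated with compound for 1 h, then stimulated with EGF for 45 min, lysates read by ELISA (OD450 minus OD570), EGF-only wells as control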
Method: as §1, §2
(2) The medium of A431 cells was changed to 90 ul of DMEM FBS free medium, and incubated overnight.
(3) The test compounds were diluted according to the method in MTT assay, 10 μl of diluted compound or DMSO was added to the corresponding plate well, and incubated at 37° C. with 5% CO2 for 1 h. The final concentration of DMSO was 0.5%. 10 μl of 2 μg/L EGF was then added to each well except the cell control well, 10 μl of FBS free DMEM was added to the well, and incubated for 45 minutes; the EGF-free and compound treatment-free cells were used as cell control, and the compound treatment-free but only EGF-treated cells were used as EGF control.
(4) 100 μl cell lysate was added after aspirating the medium, sealed and placed in refrigerator at −80° C. overnight.
The assay was operated according to the instructions of R&D DYC3570E.
as §3
(7) Detection antibody was diluted according to a predetermined ratio of kit instruction by using IC dilution, and 100 μl of the diluted Detection Antibody was added to each well, and incubated at 25° C. for 1 h under shaking in darkness;
(9) reagent A and reagent B of TMB substrate (R & D DY999) were mixed at 1:1, 100 μl of substrate was added to each well, and incubated at 25° C. for 20 minutes under shaking in darkness;
(11) The OD450 values and OD570 values of the cell control, blank control and compound treatment were measured respectively by using microplate reader (Thermo Multiskan K3), and the corresponding OD570 values were subtracted from OD450 values of the same wells to get the ODEGF, ODcompound and ODcell respectively.

[6] = Mus musculus, NIH3T3, cytotoxicity, MTT, 72 h

Chain of EGFR WT kinase (P00533 25-1210): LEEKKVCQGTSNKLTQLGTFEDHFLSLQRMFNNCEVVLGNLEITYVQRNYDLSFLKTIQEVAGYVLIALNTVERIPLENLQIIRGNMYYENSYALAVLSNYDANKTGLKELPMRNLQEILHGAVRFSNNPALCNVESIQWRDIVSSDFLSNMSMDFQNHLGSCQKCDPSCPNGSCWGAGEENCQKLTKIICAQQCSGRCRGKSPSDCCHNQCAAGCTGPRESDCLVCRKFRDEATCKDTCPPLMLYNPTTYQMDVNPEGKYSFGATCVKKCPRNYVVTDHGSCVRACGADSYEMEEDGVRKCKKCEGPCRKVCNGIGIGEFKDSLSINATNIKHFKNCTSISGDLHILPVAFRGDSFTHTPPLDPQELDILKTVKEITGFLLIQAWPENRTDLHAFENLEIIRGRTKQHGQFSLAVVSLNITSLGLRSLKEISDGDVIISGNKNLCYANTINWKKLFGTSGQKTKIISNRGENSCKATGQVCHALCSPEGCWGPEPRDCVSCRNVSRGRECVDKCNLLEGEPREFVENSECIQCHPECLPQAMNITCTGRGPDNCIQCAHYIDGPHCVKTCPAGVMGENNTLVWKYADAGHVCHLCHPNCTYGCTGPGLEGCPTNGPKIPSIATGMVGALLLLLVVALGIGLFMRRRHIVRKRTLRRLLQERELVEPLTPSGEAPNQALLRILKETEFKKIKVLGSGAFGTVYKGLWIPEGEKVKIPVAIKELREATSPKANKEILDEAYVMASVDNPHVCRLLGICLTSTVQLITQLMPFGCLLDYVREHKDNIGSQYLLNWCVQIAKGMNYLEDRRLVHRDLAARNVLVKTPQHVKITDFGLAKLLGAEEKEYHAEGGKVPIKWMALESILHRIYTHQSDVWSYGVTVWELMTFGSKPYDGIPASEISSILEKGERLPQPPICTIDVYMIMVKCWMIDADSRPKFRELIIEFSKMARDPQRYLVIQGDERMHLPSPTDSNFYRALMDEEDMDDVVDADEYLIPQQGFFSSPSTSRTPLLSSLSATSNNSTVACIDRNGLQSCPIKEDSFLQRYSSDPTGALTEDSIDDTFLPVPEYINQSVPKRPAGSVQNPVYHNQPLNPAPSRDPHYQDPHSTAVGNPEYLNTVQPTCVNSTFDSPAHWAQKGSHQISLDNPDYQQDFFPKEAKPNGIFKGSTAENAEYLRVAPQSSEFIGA

Structure (SMILES): CN(C)C/C=C/C(=O)Nc1cc2c(Nc3ccc(F)c(Cl)c3)ncnc2cc1O[C@H]1CCOC1 [BIBW2992, Afatinib, reference compound]
- IC50 ([1]; Homo sapiens, NCI-H1975, 72 h): 88 nM
- IC50 ([2]; Mus musculus, NIH3T3, 72 h): 2750 nM

Structure (SMILES): C=CC(=O)Nc1cc(Nc2ncc(Cl)c(-c3cnc4c(ccn4C)c3)n2)c(OC)cc1N(C)CCN(C)C [Compound Z-1, N-(5-(5-chloro-4-(1-methyl-1H-pyrrolo[2,3-b]pyridin-5-yl)pyrimidin-2-amino)-2-((2-(dimethylamino)ethyl)methylamino)-4-methoxyphenyl)acrylamide]
- IC50 [3]: 25 nM
- IC50 ([2]; cytotoxicity, MTT, 72 h): 6590 nM
- IC50 [4]: 30 nM
- Selective inhibitory activities of target on cellular level [IC50 (A431 cells)/IC50 (H1975 cells)] [4]: 15.7
- IC50 [5]: 471 nM

Structure (SMILES): C=CC(=O)Nc1cc(Nc2ncc(Cl)c(-c3cnc4c(ccn4C)c3)n2)c(OC)cc1N1CCN(C)CC1 [Compound Z-3, N-(5-(5-chloro-4-(1-methyl-1H-pyrrolo[2,3-b]pyridin-5-yl)pyrimidin-2-amino)-4-methoxy-2-(4-methylpiperazin-1-yl)phenyl)acrylamide]
- IC50 [2, 6]: 8160 nM

Structure (SMILES): C=CC(=O)Nc1cc(Nc2nccc(-c3cnc4c(cnn4C)c3)n2)c(OC)cc1N1CCC(N(C)C)CC1 [Compound Z-4, N-(2-(4-(dimethylamino)piperidin-1-yl)-4-methoxy-5-(4-(1-methyl-1H-pyrazolo[3,4-b]pyridin-5-yl)pyrimidin-2-ylamino)phenyl)acrylamide]
- IC50 [3]: 45 nM

Structure (SMILES): C=CC(=O)Nc1cc(Nc2nccc(-c3cnc4c(cnn4C)c3)n2)c(OC)cc1N1CCN(C)CC1 [Compound Z-5, N-(4-methoxy-5-(4-(1-methyl-1H-pyrazolo[3,4-b]pyridin-5-yl)pyrimidin-2-ylamino)-2-(4-methylpiperazin-1-yl)phenyl)acrylamide]
- IC50 [3]: 105 nM

Structure (SMILES): C=CC(=O)Nc1cc(Nc2nccc(-c3cnn(C)c3)n2)c(OC)cc1N1CCC(N(C)C)CC1 [Compound Z-17, N-(2-(4-(dimethylamino)piperidin-1-yl)-4-methoxy-5-((4-(1-methyl-1H-pyrazol-4-yl)pyrimidin-2-yl)amino)phenyl)acrylamide]
- IC50 ([4]; Homo sapiens, NCI-H1975): 77 nM
- IC50 ([5]; Homo sapiens, A-431): 3080 nM

Structure (SMILES): C=CC(=O)Nc1cc(Nc2nccc(-c3cnn(C)c3)n2)c(OC)cc1N(C)CCN(C)C [Compound Z-18, N-(2-((2-(dimethylamino)ethyl)(methyl)amino)-4-methoxy-5-((4-(1-methyl-1H-pyrazol-4-yl)pyrimidin-2-yl)amino)phenyl)acrylamide]
- IC50 [3]: 197 nM

Structure (SMILES): C=CC(=O)Nc1cc(Nc2ncc(F)c(-c3cnc4c(ccn4C)c3)n2)c(OC)cc1N(C)CCN(C)C [Compound Z-20, N-(2-((2-(dimethylamino)ethyl)(methyl)amino)-5-((5-fluoro-4-(1-methyl-1H-pyrrolo[2,3-b]pyridin-5-yl)pyrimidin-2-yl)amino)-4-methoxyphenyl)acrylamide]
- IC50 [3]: 4 nM
- Selective inhibitory activities of target on cellular level [IC50 (A431 cells)/IC50 (H1975 cells)] [4]: 7.6
- IC50 ([4]; Homo sapiens, NCI-H1975): 22 nM
- IC50 ([5]; Homo sapiens, A-431): 167 nM

Structure (SMILES): C=CC(=O)Nc1cc(Nc2ncc(OC)c(-c3cnc4c(ccn4C)c3)n2)c(OC)cc1N(C)CCN(C)C [Compound Z-21, N-(2-((2-(dimethylamino)ethyl)(methyl)amino)-4-methoxy-5-((5-methoxy-4-(1-methyl-1H-pyrrolo[2,3-b]pyridin-5-yl)pyrimidin-2-yl)amino)phenyl)acrylamide]
- IC50 [3]: 9 nM
- Selective inhibitory activities of target on cellular level [IC50 (A431 cells)/IC50 (H1975 cells)] [4]: 10.3
- IC50 ([4]; Homo sapiens, NCI-H1975): 11 nM
- IC50 ([5]; Homo sapiens, A-431): 113 nM

Structure (SMILES): C=CC(=O)Nc1cc(Nc2nccc(-c3cnc4c(ccn4C)c3)n2)c(OC)cc1N1CCC(N(C)C)CC1 [Compound Z-25]
- IC50 [3]: 61 nM
- IC50 ([2]; cytotoxicity, MTT, 72 h): 6910 nM

Structure (SMILES): C=CC(=O)Nc1cc(Nc2nccc(-c3cnc4c(ccn4C)c3)n2)c(OC)cc1N1CCN(C)CC1 [Compound Z-26]
- IC50 [3]: 114 nM
- IC50 ([2]; cytotoxicity, MTT, 72 h): > 10000 nM

Structure (SMILES): C=CC(=O)Nc1cc(Nc2ncc(F)c(-c3cnc4c(ccn4C)c3)n2)c(OC)cc1N1CCC(N(C)C)CC1 [Compound Z-29]
- IC50 [3]: 118 nM

Structure (SMILES): C=CC(=O)Nc1cc(Nc2ncc(C(=O)OC)c(-c3cnc4c(ccn4C)c3)n2)c(OC)cc1N(C)CCN(C)C [Compound Z-32]
- IC50 [3]: 4 nM
- IC50 ([2]; cytotoxicity, MTT, 72 h): > 10000 nM

Structure (SMILES): C=CC(=O)Nc1cc(Nc2nccc(-c3cnc4[nH]ccc4c3)n2)c(OC)cc1N1CC(N(C)C)C1 [Compound Z-33]
- IC50 ([2]; cytotoxicity, MTT, 72 h): > 10000 nM

Structure (SMILES): C=CC(=O)Nc1cc(Nc2ncc(F)c(-c3cnc4c(cnn4C)c3)n2)c(OC)cc1N1CCC(N(C)C)CC1 [Compound Z-37]
- IC50 [3]: 89 nM
- IC50 [4]: 57 nM
- Selective inhibitory activities of target on cellular level [IC50 (A431 cells)/IC50 (H1975 cells)] [4]: 8.4
- IC50 [5]: 481 nM

Structure (SMILES): C=CC(=O)Nc1cc(Nc2ncc(OC)c(-c3cnc4c(cnn4C)c3)n2)c(OC)cc1N1CCC(N(C)C)CC1 [Compound Z-38]
- IC50 [3]: 35 nM
- IC50 ([2]; cytotoxicity, MTT, 72 h): > 10000 nM

Structure (SMILES): C=CC(=O)Nc1cc(Nc2ncc(Cl)c(-c3cnc4c(cnn4C)c3)n2)c(OC)cc1N1CCC(N(C)C)CC1 [Compound Z-40]
- IC50 [3]: 233 nM
- IC50 [4]: 70 nM
- Selective inhibitory activities of target on cellular level [IC50 (A431 cells)/IC50 (H1975 cells)] [4]: 30.5
- IC50 [5]: 2140 nM

Structure (SMILES): C=CC(=O)Nc1cc(Nc2ncc(F)c(-c3cnc4c(cnn4C)c3)n2)c(OC)cc1N(C)CCN(C)C [Compound Z-41]
- IC50 [3]: 20 nM
- IC50 ([2]; cytotoxicity, MTT, 72 h): > 10000 nM
- IC50 [4]: 31 nM
- Selective inhibitory activities of target on cellular level [IC50 (A431 cells)/IC50 (H1975 cells)] [4]: 30.8
- IC50 [5]: 954 nM

Structure (SMILES): C=CC(=O)Nc1cc(Nc2nccc(-c3cnc4c(c3)c(Cl)cn4C)n2)c(OC)cc1N(C)CCN(C)C [Compound Z-54]
- IC50 ([1]; MTT, 72 h): 3 nM
- IC50 [4]: 4 nM

Structure (SMILES): C=CC(=O)Nc1cc(Nc2nccc(-c3ccc4c(ccn4C)c3)n2)c(OC)cc1N(C)CCN(C)C [Compound Z-87]
- IC50 [3]: 8 nM
- IC50 [4]: 31 nM
- Selective inhibitory activities of target on cellular level [IC50 (A431 cells)/IC50 (H1975 cells)] [4]: 6.8
- IC50 [5]: 210 nM

Structure (SMILES): C=CC(=O)Nc1cc(Nc2ncc(Cl)c(-c3ccc4c(ccn4C)c3)n2)c(OC)cc1N(C)CCN(C)C [Compound Z-88]
- IC50 [3]: 11 nM
- IC50 [4]: 18 nM
- Selective inhibitory activities of target on cellular level [IC50 (A431 cells)/IC50 (H1975 cells)] [4]: 24.9
- IC50 [5]: 449 nM

Structure (SMILES): C=CC(=O)Nc1cc(Nc2ncc(F)c(-c3cnn(C)c3)n2)c(OC)cc1N(C)CCN(C)C [Compound Z-93, N-(2-((2-(dimethylamino)ethyl)(methyl)amino)-5-(5-fluoro-4-(1-methyl-1H-pyrazol-4-yl)pyrimidin-2-ylamino)-4-methoxyphenyl)acrylamide]
- IC50 [2, 6]: > 10000 nM

Structure (SMILES): C=CC(=O)Nc1cc(Nc2ncc(Cl)c(-c3cnn(C4CCNCC4)c3)n2)c(OC)cc1N1CCC(N(C)C)CC1 [Compound Z-96, N-(5-(5-chloro-4-(1-(piperidin-4-yl)-1H-pyrazol-4-yl)pyrimidin-2-ylamino)-2-(4-(dimethylamino)piperidin-1-yl)-4-methoxyphenyl)acrylamide]
- IC50 [3]: 41 nM
- Selective inhibitory activities of target on cellular level [IC50 (A431 cells)/IC50 (H1975 cells)] [4]: 10.3
- IC50 ([4]; Homo sapiens, NCI-H1975): 94 nM
- IC50 ([5]; Homo sapiens, A-431): 969 nM

Structure (SMILES): C=CC(=O)Nc1cc(Nc2ncc(Cl)c(-c3cnn(C)c3C)n2)c(OC)cc1N1CCC(N(C)C)CC1 [Compound Z-97, N-(5-(5-chloro-4-(1,5-dimethyl-1H-pyrazol-4-yl)pyrimidin-2-ylamino)-2-(4-(dimethylamino)piperidin-1-yl)-4-methoxyphenyl)acrylamide]
- IC50 [3]: 341 nM
- Selective inhibitory activities of target on cellular level [IC50 (A431 cells)/IC50 (H1975 cells)] [4]: 72.1
- IC50 ([4]; Homo sapiens, NCI-H1975): 104 nM
- IC50 ([5]; Homo sapiens, A-431): 7500 nM

Structure (SMILES): C=CC(=O)Nc1cc(Nc2ncc(Cl)c(-c3cnn(C(F)F)c3)n2)c(OC)cc1N1CCC(N(C)C)CC1 [Compound Z-101, N-(5-(5-chloro-4-(1-(difluoromethyl)-1H-pyrazol-4-yl)pyrimidin-2-ylamino)-2-(4-(dimethylamino)piperidin-1-yl)-4-methoxyphenyl)acrylamide]
- IC50 ([1]; Homo sapiens, NCI-H1975, MTT, 72 h): 43 nM
- IC50 [2, 6]: 3430 nM

Structure (SMILES): C=CC(=O)Nc1cc(Nc2nccc(-c3cnc4c(ccn4C)c3)n2)c(OC)cc1N(C)CCN(C)CC [Compound Z-105]
- IC50 [3]: 7 nM
- IC50 ([2]; cytotoxicity, MTT, 72 h): 9360 nM
- IC50 [4]: 28 nM
- Selective inhibitory activities of target on cellular level [IC50 (A431 cells)/IC50 (H1975 cells)] [4]: 6.5
- IC50 [5]: 181 nM

Structure (SMILES): C=CC(=O)Nc1cc(Nc2ncc(Cl)c(-c3cnc4c(ccn4C)c3)n2)c(OC)cc1N(C)CCN(C)CC [Compound Z-109]
- IC50 [3]: 28 nM
- IC50 ([2]; cytotoxicity, MTT, 72 h): 6000 nM
- IC50 [4]: 85 nM
- Selective inhibitory activities of target on cellular level [IC50 (A431 cells)/IC50 (H1975 cells)] [4]: 5.1
- IC50 [5]: 434 nM

Structure (SMILES): C=CC(=O)Nc1cc(Nc2ncc(Cl)c(-c3cnc4c(ccn4C)c3)n2)c(OC)cc1N(C)CCN(CC)CC [Compound Z-110]
- IC50 ([2]; cytotoxicity, MTT, 72 h): 6840 nM

Structure (SMILES): C=CC(=O)Nc1cc(Nc2ncc(Cl)c(-c3cnc4c(ccn4C)c3)n2)c(OC)cc1N(C)CCCN(C)C [Compound Z-111]
- IC50 ([2]; cytotoxicity, MTT, 72 h): 4010 nM

Structure (SMILES): C=CC(=O)Nc1cc(Nc2ncc(Cl)c(-c3cnc4c(ccn4C)c3)n2)c(OC)cc1NCCCN(C)C [Compound Z-114]
- IC50 [3]: 116 nM
- IC50 ([2]; cytotoxicity, MTT, 72 h): 8280 nM

Structure (SMILES): C=CC(=O)Nc1cc(Nc2ncc(Cl)c(-c3cnc4c(ccn4C)c3)n2)c(OC)cc1N(C)CCNC [Compound Z-116]
- IC50 [3]: 37 nM
- IC50 ([2]; cytotoxicity, MTT, 72 h): > 10000 nM

Structure (SMILES): C=CC(=O)Nc1cc(Nc2ncc(F)c(-c3cnc4c(ccn4C)c3)n2)c(OC)cc1OCCN(C)C [Compound Z-118]
- IC50 [3]: 6 nM
- IC50 ([2]; cytotoxicity, MTT, 72 h): 3320 nM

Structure (SMILES): C=CC(=O)Nc1cc(Nc2ncc(Cl)c(-c3cnc4c(c3)c(Cl)cn4C)n2)c(OC)cc1N(C)CCN(C)C [Compound Z-121]
- IC50 [3]: 14 nM
- IC50 ([2]; cytotoxicity, MTT, 72 h): 8530 nM

Structure (SMILES): C=CC(=O)Nc1cc(Nc2ncc(F)c(-c3cnc4c(c3)c(Cl)cn4C)n2)c(OC)cc1N1CCC(N(C)C)CC1 [Compound Z-122]
- IC50 [3]: 25 nM
